The data set in a line: Thermal stability of IPBC in lubricant mixtures, oven at 180° C., amount determined by HPLC. In kind it is physicochemical. The method, then: Except for example 2 wherein 100% IPBC was used, the antimicrobial agent was admixed with the lubricating agent at room temperature overnight in a roller mixer. Samples of the resulting mixtures were then placed in a conventional oven at 180° C. for the time specified below (5 minutes and 132 minutes). The amount of antimicrobial agent in the sample, initially and after heating, was determined by HPLC. All samples were contained in dark bottles and covered with aluminum foil during heating.
The samples were prepared and tested as described in Examples 1-5.

In the case of `CCCCNC(=O)OCC#CI` [Example 2, 3-iodo-2-propynyl butyl carbamate], the “% Biocide/ 5 min.” value (after 5 minutes in oven at 180° C.) is given as 83%. Besides, under “after 132 minutes in oven at 180° C.”, the “% Biocide/ 132 min.” value worked out at 0%. In addition, the “% Initial Biocide” value (before heating, by weight) is listed as 100%.

These data come from US20060029649A1, “Stabilized antimicrobial agents” (priority 2004, published 2006).
